Experiment [1] has as its target N-type calcium channel (NTCC) (Homo sapiens, UniProt Q00975). Description: FLIPR calcium mobilization assay for N-type calcium channel (differentiated IMR32 cells). It counts as cell-based. On the set-up: endogenous in cells; host or cells: IMR32 cells (ATCC), differentiated 8 days with dibutyryl cAMP and bromodeoxyuridine. To be noted: calcium mobilization in vitro assay; N-type calcium channel block. On the procedure:
Cell maintenance and differentiation. Unless noted otherwise, cell culture reagents were purchased from Mediatech of Herndon, Md. IMR32 cells (American Type Culture Collection, ATCC, Manassas, Va.) were routinely cultured in growth medium consisting of minimum essential medium containing 10% fetal bovine serum (FBS, Hyclone, Logan, Utah), 100 U/mL penicillin, 100 μg/mL streptomycin, 2 mM L-glutamine, 1 mM sodium pyruvate, and 1×MEM non-essential amino acids. 80-90% confluent flasks of cells were differentiated using the following differentiation medium: Growth medium plus 1 mM dibutyryl cyclic AMP (Sigma, St. Louis, Mo.), and 2.5 μM bromodeoxyuridine (Sigma). Cells were differentiated for 8 days by replacing differentiation medium every 2-3 days.
FLIPR Calcium Mobilization Assay for N-type Calcium Channel. One day prior to performing this assay, differentiated IMR32 cells were treated with 1×
CellStripper, and seeded on poly-D-lysine-coated 96-well clear-bottom black plates (Becton Dickinson, Franklin Lakes, N.J.) at 200,000 cells/well. On the day of the assay, the cell plates were washed with IMR32 buffer (127 mM NaCl, 1 mM KCl, 2 mM MgCl2, 700 μM NaH2PO4, 5 mM CaCl2, 5 mM NaHCO3, 8 mM HEPES, 10 mM glucose, pH 7.4), then pre-stimulated with KCl and loaded as follows: 0.05 mL of IMR32 buffer, 0.05 mL of each compound tested diluted in IMR32 buffer containing 20 μM nitrendipine (Sigma), and 0.1 mL KCl dissolved in IMR32 buffer, plus Fluo-4 were added (3 μM final concentration, Molecular Probes, Eugene, Oreg.). Final test compound concentrations ranged from about 846 pM to about 17 μM, final nitrendipine concentration was 5 μM, and final KCl concentration was 90 mM. After 1 hour, the cells were washed twice with 0.05 mL of each compound tested in nitrendipine-containing IMR32 buffer (no KCl or Fluo-4), and then replaced with 0.1 mL of each compound tested in nitrendipine-containing IMR32 buffer. Plates were then transferred to a Fluorimetric Imaging Plate Reader (FLIPR^96, Molecular Devices, Inc., Sunnyvale, Calif.) for assay. The FLIPR measured basal Fluo-4 fluorescence for 315 seconds (i.e., 5 minutes and 15 seconds), then added 0.1 mL KCl agonist dissolved in IMR32 buffer and measured fluorescence for another 45 seconds. Final test compound concentrations on the cells after FLIPR read ranged from about 846 pM to about 17 μM, final nitrendipine concentration was 5 μM, and final KCl concentration was 90 mM. Data were collected over the entire time course and analyzed using Excel, Graph Pad Prism (version 3.02, Graph Pad, San Diego, Calif.), or an in-house non-linear regression analysis software.
In general terms: Calcium assays in cells follow changes in intracellular calcium, usually with a dye or a luminescent sensor.

Experiment [2] addresses T1, L-type calcium channel (LTCC) (Rattus norvegicus, UniProt P22002).
T1 construct: The 6.5 kb cDNA encoding the L-type calcium channel α1c subunit was cloned by PCR amplification from rat heart cDNA; expressed in transfected cells; host or cells: HEK293 (ATCC), stably transfected
As to the kind of experiment: FLIPR calcium mobilization assay for L-type calcium channel (HEK293 cells expressing recombinant rat LTCC subunits, or alternatively differentiated A7r5 cells). It counts as cell-based. Conditions: calcium mobilization in vitro assay; L-type calcium channel block. On the procedure: A7r5 (ATCC) cells were maintained and routinely cultured in A7r5 growth medium consisting of Dulbecco's Modified Eagles Medium containing 10% FBS, 100 U/mL penicillin, 100 μg/mL streptomycin, 4 mM L-glutamine, and 0.15% sodium bicarbonate. 80-90% confluent flasks of cells were differentiated using the following differentiation medium: A7r5 Growth Medium plus 1 mM dibutyryl cyclic AMP (Sigma). Cells were differentiated for 8 days by replacing differentiation medium every 2-3 days.
FLIPR Calcium Mobilization Assay for L-type Calcium Channel. One day prior to performing this assay, HEK293 cells stably expressing recombinant rat L-type calcium channel (LTCC) subunits (α1c, α2δ, and β1) are trypsinized, then seeded on poly-D-lysine-coated 96-well clear-bottom black plates (Becton Dickinson, Franklin Lakes, N.J.) at 75,000 cells/well. On the day of the assay, the plates are washed with LTCC wash buffer (127 mM NaCl, 2 mM MgCl2, 700 μM NaH2PO4, 5 mM CaCl2, 5 mM NaHCO3, 8 mM HEPES, 10 mM glucose, pH 7.4), then loaded with 0.1 mL of LTCC wash buffer containing Fluo-4 (3 μM final concentration, Molecular Probes, Eugene, Oreg.). After 1 hour, the cells are washed with 0.1 mL LTCC wash buffer and resuspended in 0.05 mL LTCC assay buffer (same composition as LTCC wash buffer). Plates are then transferred to a FLIPR^96 for assay. The FLIPR measures basal Fluo-4 fluorescence for 15 seconds, then adds 0.05 mL of each compound tested diluted in LTCC assay buffer at final concentrations ranging from about 846 pM to about 17 μM. Fluo-4 fluorescence is then measured for 5 minutes. 0.1 mL KCl agonist dissolved in LTCC assay buffer is then added to the cells to produce a final concentration of 90 mM KCl, and fluorescence is measured for another 45 seconds. Data are collected over the entire time course and analyzed using Excel, Graph Pad Prism, or an in-house regression analysis software.
Alternative FLIPR Calcium Mobilization Assay for L-type Calcium Channel. Alternatively, the following cell line and procedure was used for the FLIPR calcium mobilization assay for L-type calcium channel. One day prior to performing this assay, differentiated A7r5 cells were trypsinized, then seeded on tissue culture treated 96-well clear-bottom black plates (Becton Dickinson, Franklin Lakes, N.J.) at a dilution of 1:1 from a confluent T150 cm^2 flask. On the day of the assay, the plates were washed with A7r5 wash buffer (127 mM NaCl, 2 mM MgCl2, 700 μM NaH2PO4, 5 mM CaCl2, 5 mM NaHCO3, 8 mM HEPES, 10 mM glucose, pH 7.4), then loaded with 0.1 mL of A7r5 wash buffer containing Fluo-4 (3 μM final concentration, Molecular Probes, Eugene, Oreg.). After 1 hour, the cells were washed with 0.1 mL A7r5 wash buffer and resuspended in 0.05 mL A7r5 assay buffer that was composed of A7r5 wash buffer plus 50 μM valinomycin (Sigma). Plates were then transferred to a FLIPR^96 for assay. The FLIPR measured basal Fluo-4 fluorescence for 15 seconds, then added 0.05 mL of each compound tested diluted in A7r5 assay buffer at final concentrations ranging from about 846 pM to about 17 μM. Fluo-4 fluorescence was then measured for 5 minutes. 0.1 mL KCl agonist dissolved in A7r5 assay buffer is then added to the cells to produce a final concentration of 90 mM KCl, and fluorescence was measured for another 45 seconds. Data were collected over the entire time course and analyzed using Excel, Graph Pad Prism, or an in-house regression analysis software.

This note sets out measurements from US8193208B2 (Purdue Pharma L.P., priority 2005, dated 2012).

Usually IC50 stands for the point on the concentration scale where inhibition reaches its midpoint.

Structures are written as SMILES. Several values for one entry are separate records, joined by “and”; a condition that tells them apart may be missing. Identical values can stand only once.

Sequence of N-type calcium channel (NTCC) (Q00975 whole entry): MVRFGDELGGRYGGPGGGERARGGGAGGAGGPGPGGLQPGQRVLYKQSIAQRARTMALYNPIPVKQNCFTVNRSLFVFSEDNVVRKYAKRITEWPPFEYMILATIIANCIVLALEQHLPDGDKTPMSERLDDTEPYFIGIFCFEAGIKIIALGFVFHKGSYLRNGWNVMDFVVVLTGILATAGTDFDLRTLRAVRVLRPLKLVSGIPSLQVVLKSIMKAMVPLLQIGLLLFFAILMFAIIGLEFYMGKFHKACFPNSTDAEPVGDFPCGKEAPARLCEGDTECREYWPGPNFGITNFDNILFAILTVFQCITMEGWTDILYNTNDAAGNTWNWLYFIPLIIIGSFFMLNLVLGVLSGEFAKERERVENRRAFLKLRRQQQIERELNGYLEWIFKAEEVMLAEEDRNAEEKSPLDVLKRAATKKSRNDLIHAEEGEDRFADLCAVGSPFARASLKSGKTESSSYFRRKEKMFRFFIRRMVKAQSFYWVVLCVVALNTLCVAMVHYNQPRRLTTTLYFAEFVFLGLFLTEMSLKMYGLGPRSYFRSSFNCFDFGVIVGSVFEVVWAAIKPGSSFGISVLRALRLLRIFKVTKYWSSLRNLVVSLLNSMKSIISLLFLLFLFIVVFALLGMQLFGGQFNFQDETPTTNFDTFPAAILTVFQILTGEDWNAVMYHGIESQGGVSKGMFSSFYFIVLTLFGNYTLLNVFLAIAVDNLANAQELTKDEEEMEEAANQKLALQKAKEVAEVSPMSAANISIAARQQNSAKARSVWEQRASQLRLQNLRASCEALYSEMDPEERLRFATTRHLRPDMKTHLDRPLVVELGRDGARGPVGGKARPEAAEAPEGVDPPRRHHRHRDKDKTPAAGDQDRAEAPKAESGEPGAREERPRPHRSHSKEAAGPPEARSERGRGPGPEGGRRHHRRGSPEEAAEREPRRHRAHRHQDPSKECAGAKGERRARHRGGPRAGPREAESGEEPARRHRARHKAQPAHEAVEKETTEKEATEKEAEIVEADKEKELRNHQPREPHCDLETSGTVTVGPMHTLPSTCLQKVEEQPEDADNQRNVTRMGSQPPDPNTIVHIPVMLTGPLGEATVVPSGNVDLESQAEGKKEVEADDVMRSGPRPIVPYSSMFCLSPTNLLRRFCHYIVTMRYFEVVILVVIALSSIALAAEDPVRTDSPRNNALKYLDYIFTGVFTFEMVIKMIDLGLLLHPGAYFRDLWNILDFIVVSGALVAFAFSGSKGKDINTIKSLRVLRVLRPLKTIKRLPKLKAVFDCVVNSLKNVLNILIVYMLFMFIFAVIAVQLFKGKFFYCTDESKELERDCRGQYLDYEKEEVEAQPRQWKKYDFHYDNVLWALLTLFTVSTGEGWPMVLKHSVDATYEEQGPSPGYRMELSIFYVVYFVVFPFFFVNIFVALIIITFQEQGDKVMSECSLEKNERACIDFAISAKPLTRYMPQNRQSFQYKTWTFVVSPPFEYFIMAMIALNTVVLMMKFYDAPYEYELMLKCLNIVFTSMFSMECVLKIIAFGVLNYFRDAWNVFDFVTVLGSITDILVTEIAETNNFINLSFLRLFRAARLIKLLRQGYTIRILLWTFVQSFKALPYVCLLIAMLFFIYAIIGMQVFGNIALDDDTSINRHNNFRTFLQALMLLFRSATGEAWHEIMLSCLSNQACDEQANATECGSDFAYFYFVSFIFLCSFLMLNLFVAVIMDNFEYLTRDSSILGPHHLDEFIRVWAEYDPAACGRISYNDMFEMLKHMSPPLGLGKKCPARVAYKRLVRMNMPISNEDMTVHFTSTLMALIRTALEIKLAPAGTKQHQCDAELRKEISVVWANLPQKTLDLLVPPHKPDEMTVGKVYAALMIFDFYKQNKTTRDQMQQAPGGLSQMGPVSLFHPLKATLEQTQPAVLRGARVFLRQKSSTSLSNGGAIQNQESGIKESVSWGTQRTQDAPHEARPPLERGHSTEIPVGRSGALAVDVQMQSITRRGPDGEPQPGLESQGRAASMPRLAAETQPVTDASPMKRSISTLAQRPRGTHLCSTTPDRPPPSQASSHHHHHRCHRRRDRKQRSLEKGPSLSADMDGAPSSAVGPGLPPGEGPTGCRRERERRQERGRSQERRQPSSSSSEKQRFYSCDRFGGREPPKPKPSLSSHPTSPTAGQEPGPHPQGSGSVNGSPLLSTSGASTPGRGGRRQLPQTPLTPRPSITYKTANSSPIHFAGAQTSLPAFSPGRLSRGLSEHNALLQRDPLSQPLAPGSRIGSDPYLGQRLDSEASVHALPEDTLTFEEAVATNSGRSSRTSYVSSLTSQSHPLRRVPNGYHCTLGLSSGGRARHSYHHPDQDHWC
Sequence of N-type calcium channel (NTCC) (P54289 25-956 partner limits assumed): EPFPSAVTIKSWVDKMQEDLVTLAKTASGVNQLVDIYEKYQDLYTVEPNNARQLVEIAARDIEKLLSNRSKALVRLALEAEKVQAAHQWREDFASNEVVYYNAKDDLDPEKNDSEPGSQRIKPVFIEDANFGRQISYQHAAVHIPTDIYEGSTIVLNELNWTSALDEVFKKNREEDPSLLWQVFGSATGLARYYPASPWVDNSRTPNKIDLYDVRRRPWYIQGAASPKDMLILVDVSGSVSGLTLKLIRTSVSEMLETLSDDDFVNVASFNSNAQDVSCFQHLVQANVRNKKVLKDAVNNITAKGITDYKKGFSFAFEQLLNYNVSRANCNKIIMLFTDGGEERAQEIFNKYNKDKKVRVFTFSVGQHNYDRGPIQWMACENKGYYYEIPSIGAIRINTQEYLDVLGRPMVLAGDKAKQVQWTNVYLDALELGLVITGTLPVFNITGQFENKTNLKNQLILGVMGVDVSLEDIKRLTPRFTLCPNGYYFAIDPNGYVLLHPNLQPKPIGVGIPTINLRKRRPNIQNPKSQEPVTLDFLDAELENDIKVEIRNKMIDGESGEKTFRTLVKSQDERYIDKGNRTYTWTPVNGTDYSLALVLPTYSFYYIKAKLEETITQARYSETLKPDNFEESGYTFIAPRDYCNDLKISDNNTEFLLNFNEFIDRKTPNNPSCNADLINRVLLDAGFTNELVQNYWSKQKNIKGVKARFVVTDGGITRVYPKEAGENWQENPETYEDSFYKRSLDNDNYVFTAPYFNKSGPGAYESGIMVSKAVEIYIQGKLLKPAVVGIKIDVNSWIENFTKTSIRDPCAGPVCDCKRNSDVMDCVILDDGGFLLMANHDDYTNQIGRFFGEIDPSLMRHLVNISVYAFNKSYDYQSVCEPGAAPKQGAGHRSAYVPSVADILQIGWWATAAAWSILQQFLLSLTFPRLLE
Sequence of N-type calcium channel (NTCC) (P54289 957-1103 partner limits assumed): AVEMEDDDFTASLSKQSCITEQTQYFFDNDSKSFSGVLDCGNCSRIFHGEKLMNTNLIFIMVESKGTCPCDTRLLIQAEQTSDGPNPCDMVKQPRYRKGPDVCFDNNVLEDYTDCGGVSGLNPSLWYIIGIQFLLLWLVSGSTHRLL
Sequence of N-type calcium channel (NTCC) (Q02641 whole entry partner): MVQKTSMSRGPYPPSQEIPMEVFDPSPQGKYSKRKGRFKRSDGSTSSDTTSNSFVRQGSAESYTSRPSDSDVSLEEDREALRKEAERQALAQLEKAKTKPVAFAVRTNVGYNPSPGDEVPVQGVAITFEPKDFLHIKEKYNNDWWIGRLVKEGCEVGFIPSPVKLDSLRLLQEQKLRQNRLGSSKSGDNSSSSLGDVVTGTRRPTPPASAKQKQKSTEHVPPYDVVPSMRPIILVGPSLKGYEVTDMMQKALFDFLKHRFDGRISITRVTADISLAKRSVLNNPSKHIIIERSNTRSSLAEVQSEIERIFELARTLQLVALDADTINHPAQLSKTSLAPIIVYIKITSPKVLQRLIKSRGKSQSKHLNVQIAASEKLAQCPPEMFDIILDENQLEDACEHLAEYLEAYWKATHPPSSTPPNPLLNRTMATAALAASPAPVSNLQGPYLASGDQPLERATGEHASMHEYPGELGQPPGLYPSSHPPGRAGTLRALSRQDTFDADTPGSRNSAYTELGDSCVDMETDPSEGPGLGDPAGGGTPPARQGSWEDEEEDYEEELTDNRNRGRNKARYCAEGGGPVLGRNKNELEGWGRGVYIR

`O=C1OC2(CCN(C(=O)CC(c3ccccc3)c3ccccc3)CC2)c2ccccc21` [1,3-dihydro-1′-(3,3-diphenylpropanoyl)-spiro[isobenzofuran-1,4′-piperidine]-3-one]: the IC50 in experiment [1] turned out to be 2.66 µM.

Consider `COc1ccc(C(=O)N2CCC3(CC2)OC(=O)c2ccccc23)cc1C(F)(F)F` [1,3-dihydro-1′-(4-methoxy-3-trifluoromethylbenzoyl)-spiro[isobenzofuran-1,4′-piperidine]-3-one], for which the IC50 in experiment [1] is 6.94 µM and 10 to 20 µM. As to `COc1ccc(C(=O)N2CCC3(CC2)OC(=O)c2ccccc23)cn1` [1,3-dihydro-1′-(6-methoxypyridin-3-ylcarbonyl)-spiro[isobenzofuran-1,4′-piperidine]-3-one], the IC50 in experiment [1] is 10 to 20 µM. On the same count and under the same terms, the same measure for `O=C(CCC(=O)N1CCC2(CC1)OC(=O)c1ccccc12)c1ccc(F)cc1` [1,3-dihydro-1′-[4-(4-fluorophenyl)-4-oxobutanoyl]-spiro[isobenzofuran-1,4′-piperidine]-3-one]: 10 to 20 µM. For the molecule `CC(C)CC(C(=O)N1CCC2(CC1)OC(=O)c1ccccc12)N(C)C(=O)OC(C)(C)C` (stereo not drawn) [1,3-dihydro-1′-[4-methyl-2-(N-methyl-N-tert-butoxycarbonylamino)pentanoyl]-spiro[isobenzofuran-1,4′-piperidine]-3-one], the IC50 in experiment [1] was found to be 10.5 µM. Regarding `O=C1OC2(CCN(C(=O)c3ccc(OCC(F)(F)F)nc3)CC2)c2ccccc21` [1,3-dihydro-1′-[6-(2,2,2-trifluoroethoxy)pyridin-3-ylcarbonyl]-spiro[isobenzofuran-1,4′-piperidine]-3-one], the IC50 in experiment [1] was found to be 6.47 µM.

Take `O=C1OC2(CCN(CCC(=O)N(c3ccc(F)cc3)c3ccc(F)cc3)CC2)c2ccccc21` [1,3-dihydro-1′-{2-[N,N-bis(4-fluorophenyl)aminocarbonyl]ethyl}-spiro[isobenzofuran-1,4′-piperidine]-3-one]: the IC50 in experiment [1] is 1.64 µM. Same read-out and setting: then `COc1ccc(CN(C)C(CC(C)C)C(=O)N2CCC3(CC2)OC(=O)c2ccccc23)cc1` (stereo not drawn) [1,3-dihydro-1′-{4-methyl-2-[N-methyl-N-(4-methoxybenzyl)amino]-pentanoyl}-spiro[isobenzofuran-1,4′-piperidine]-3-one], with 4.13 µM.

As for `O=C(CC(c1ccccc1)c1ccccc1)N1CCC2(C=Cc3ncccc32)CC1` [1-(3,3-diphenylpropanoyl)-spiro[piperidine-4,5′-cyclopenta[b]pyridine]], the IC50 in experiment [1] worked out at 3.52 µM. For the molecule `COc1ccc(C(=O)N2CCC3(C=Cc4ccccc43)CC2)cc1C(F)(F)F` [1-(3-trifluoromethyl-4-methoxybenzoyl)-spiro[piperidine-4,1′-indene]], the IC50 in experiment [1] came to 2.29 µM; in experiment [2], 5.74 µM. With `COc1ccc(CN2CCC3(C=Cc4ncccc43)CC2)cc1C(F)(F)F` [1-(4-methoxy-3-trifluoromethylbenzyl)-spiro[piperidine-4,5′-cyclopenta[b]pyridine]], the IC50 in experiment [1] is 10 to 20 µM. Still for that read-out and setting: the same measure for `O=C(N1CCc2cc(S(=O)(=O)N3CCC4(C=Cc5ncccc54)CC3)ccc2C1)C(F)(F)F` [1-(N-trifluoromethylcarbonyl-1,2,3,4-tetrahydroisoquinolin-6-yl-sulfonyl)-spiro[piperidine-4,5′-cyclopenta[b]pyridine]]: 5.61 µM. As for `O=C(c1cc2ccccc2s1)N1CCC2(C=Cc3ncccc32)CC1` [1-(benzo[b]thiophen-2-ylcarbonyl)-spiro[piperidine-4,5′-cyclopenta[b]pyridine]], the IC50 in experiment [1] lay in the range of 10 to 20 µM. Consider `C1=CC2(CCN(CCC=C3c4ccccc4CCc4ccccc43)CC2)c2cccnc21` [1-[2-(10,11-dihydro-5H-dibenzo[a,d]cyclohepten-5-ylmethenyl)ethyl]-spiro[piperidine-4,5′-cyclopenta[b]pyridine]], for which the values for the IC50 in experiment [1] and in experiment [2] were 0.55 µM and 3.78 µM, respectively. Consider `O=C1NC2(CCN(CCCC(c3ccc(F)cc3)c3ccc(F)cc3)CC2)c2ccccc21` [2,3-Dihydro-1′-[4,4-bis(4-fluorophenyl)butyl]-spiro[isoindole-1,4′-piperidine]-3-one], for which the results for the IC50 in experiment [1] and in experiment [2] were 0.34 µM and greater than 20 µM, respectively. For `O=C1OC2(CCN(CCCC(c3ccc(F)cc3)c3ccc(F)cc3)CC2)c2ccccc21` [Compound 12, 1,3-Dihydro-1′-[4,4-bis(4-fluorophenyl)butyl]-spiro[isobenzofuran-1,4′-piperidine]-3-one], the IC50 worked out at 0.46 µM in experiment [1] and 3.95 µM in experiment [2].

For `O=C(CC=C(c1ccc(F)cc1)c1ccc(F)cc1)N1CCC2(C=Cc3ccccc32)CC1` [Compound 33, 1-[4,4-bis(4-fluorophenyl)but-3-enoyl]-spiro[piperidine-4,1′-indene]], the IC50 in experiment [1] was 5.59 µM. `O=C(CCC(c1ccc(F)cc1)c1ccc(F)cc1)N1CCC2(C=Cc3ccccc32)CC1` [Compound 34, 1-[4,4-bis(4-fluorophenyl)butanoyl]-spiro[piperidine-4,1′-indene]]: the IC50 in experiment [1] was 10 to 20 µM.

With `O=C1OC2(CCN(CC(=O)N(c3ccc(F)cc3)c3ccc(F)cc3)CC2)c2ccccc21` [Compound 71, 1,3-Dihydro-1′-[N,N,-bis(4-fluorophenyl)aminocarbonylmethyl]-spiro[isobenzofuran-1,4′-piperidine]-3-one], the IC50 in experiment [1] came out at 4.89 µM. `O=C1OC2(CCN(C(=O)CC(=O)N(c3ccc(F)cc3)c3ccc(F)cc3)CC2)c2ccccc21` [Compound 75, 1,3-Dihydro-1′-{2-[N,N,-bis(4-fluorophenyl)aminocarbonyl]ethan-1-oyl}-spiro[isobenzofuran-1,4′-piperidine]-3-one]: the IC50 in experiment [1] worked out at 5.79 µM.
